# Measured values published in article PMC12064818, “A general assay platform to study protein pharmacology using ligand-dependent structural dynamics” (Nature Communications, 2025).
# Biological target: firefly luciferase (FLuc) (Photinus pyralis, UniProt P08659)
# Assay: Thermal shift profiles (Thermofluor assay), FLuc;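 on Thermofluor FLuc, No ATP: normalized first derivative of fluorescence (dF/dT) at the stated temperature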
# Format: binding
# Parameters: unit of the concentration uncertain
# Settings: compound 100 (unit uncertain); for Thermofluor FLuc, ATP: ATP (2 (unit uncertain))
# Chain of firefly luciferase (FLuc) (P08659 whole entry): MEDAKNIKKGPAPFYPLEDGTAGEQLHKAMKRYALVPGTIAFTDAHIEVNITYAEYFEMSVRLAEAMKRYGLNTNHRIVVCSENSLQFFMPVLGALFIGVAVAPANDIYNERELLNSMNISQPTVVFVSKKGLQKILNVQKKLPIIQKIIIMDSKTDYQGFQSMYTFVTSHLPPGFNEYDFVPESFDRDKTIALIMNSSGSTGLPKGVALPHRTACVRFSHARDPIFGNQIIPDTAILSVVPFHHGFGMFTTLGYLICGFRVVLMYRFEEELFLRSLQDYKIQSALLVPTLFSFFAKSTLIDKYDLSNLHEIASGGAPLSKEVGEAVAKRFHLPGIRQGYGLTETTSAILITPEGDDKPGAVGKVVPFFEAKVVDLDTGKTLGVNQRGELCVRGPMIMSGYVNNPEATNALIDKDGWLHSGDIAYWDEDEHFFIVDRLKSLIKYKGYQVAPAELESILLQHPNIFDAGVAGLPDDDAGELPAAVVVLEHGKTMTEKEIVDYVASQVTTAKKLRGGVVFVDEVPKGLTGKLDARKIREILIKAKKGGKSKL
smiles,measurement,setting,value
COc1ccc(NC(=O)C2CCN(C(=O)c3ncn4c3COC(c3ccccc3)C4)CC2)cc1Cl (centres unmarked) [NCGC 00449919],"Thermofluor FLuc, No ATP",20.000 °C,0.250
same,"Thermofluor FLuc, ATP",20.000 °C,0.934
same,"Thermofluor FLuc, No ATP",20.993 °C,0.185
same,"Thermofluor FLuc, ATP",20.993 °C,0.955
same,"Thermofluor FLuc, No ATP",21.987 °C,0.201
same,"Thermofluor FLuc, ATP",21.987 °C,0.975
same,"Thermofluor FLuc, No ATP",22.980 °C,0.152
same,"Thermofluor FLuc, ATP",22.980 °C,0.992
same,"Thermofluor FLuc, No ATP",23.974 °C,0.098
same,"Thermofluor FLuc, ATP",23.974 °C,1
same,"Thermofluor FLuc, No ATP",24.967 °C,0.101
same,"Thermofluor FLuc, ATP",24.967 °C,0.999
same,"Thermofluor FLuc, No ATP",25.960 °C,0.104
same,"Thermofluor FLuc, ATP",25.960 °C,0.991
same,"Thermofluor FLuc, No ATP",26.954 °C,0.059
same,"Thermofluor FLuc, ATP",26.954 °C,0.977
same,"Thermofluor FLuc, No ATP",27.947 °C,0.054
same,"Thermofluor FLuc, ATP",27.947 °C,0.961
same,"Thermofluor FLuc, No ATP",28.940 °C,0.030
same,"Thermofluor FLuc, ATP",28.940 °C,0.943
same,"Thermofluor FLuc, No ATP",29.934 °C,0.043
same,"Thermofluor FLuc, ATP",29.934 °C,0.925
same,"Thermofluor FLuc, No ATP",30.927 °C,0.015
same,"Thermofluor FLuc, ATP",30.927 °C,0.906
same,"Thermofluor FLuc, No ATP",31.921 °C,0.031
same,"Thermofluor FLuc, ATP",31.921 °C,0.886
same,"Thermofluor FLuc, No ATP",32.914 °C,0.002
same,"Thermofluor FLuc, ATP",32.914 °C,0.862
same,"Thermofluor FLuc, No ATP",33.907 °C,0.008
same,"Thermofluor FLuc, ATP",33.907 °C,0.832
same,"Thermofluor FLuc, No ATP",34.901 °C,0.005
same,"Thermofluor FLuc, ATP",34.901 °C,0.793
same,"Thermofluor FLuc, No ATP",35.894 °C,0.014
same,"Thermofluor FLuc, ATP",35.894 °C,0.741
same,"Thermofluor FLuc, No ATP",36.887 °C,0.000
same,"Thermofluor FLuc, ATP",36.887 °C,0.675
same,"Thermofluor FLuc, No ATP",37.881 °C,0.036
same,"Thermofluor FLuc, ATP",37.881 °C,0.591
same,"Thermofluor FLuc, No ATP",38.874 °C,0.034
same,"Thermofluor FLuc, ATP",38.874 °C,0.492
same,"Thermofluor FLuc, No ATP",39.868 °C,0.075
same,"Thermofluor FLuc, ATP",39.868 °C,0.38
same,"Thermofluor FLuc, No ATP",40.861 °C,0.126
same,"Thermofluor FLuc, ATP",40.861 °C,0.264
same,"Thermofluor FLuc, No ATP",41.854 °C,0.197
same,"Thermofluor FLuc, ATP",41.854 °C,0.155
same,"Thermofluor FLuc, No ATP",42.848 °C,0.295
same,"Thermofluor FLuc, ATP",42.848 °C,0.067
same,"Thermofluor FLuc, No ATP",43.841 °C,0.412
same,"Thermofluor FLuc, ATP",43.841 °C,0.013
same,"Thermofluor FLuc, No ATP",44.835 °C,0.542
same,"Thermofluor FLuc, ATP",44.835 °C,0
same,"Thermofluor FLuc, No ATP",45.828 °C,0.677
same,"Thermofluor FLuc, ATP",45.828 °C,0.03
same,"Thermofluor FLuc, No ATP",46.821 °C,0.764
same,"Thermofluor FLuc, ATP",46.821 °C,0.099
same,"Thermofluor FLuc, No ATP",47.815 °C,0.849
same,"Thermofluor FLuc, ATP",47.815 °C,0.195
same,"Thermofluor FLuc, No ATP",48.808 °C,0.904
same,"Thermofluor FLuc, ATP",48.808 °C,0.306
same,"Thermofluor FLuc, No ATP",50.795 °C,0.949
same,"Thermofluor FLuc, ATP",50.795 °C,0.532
same,"Thermofluor FLuc, No ATP",51.788 °C,1.000
same,"Thermofluor FLuc, ATP",51.788 °C,0.632
same,"Thermofluor FLuc, ATP",52.782 °C,0.721
same,"Thermofluor FLuc, No ATP",53.775 °C,1.000
same,"Thermofluor FLuc, ATP",53.775 °C,0.796
same,"Thermofluor FLuc, No ATP",54.768 °C,0.991
same,"Thermofluor FLuc, ATP",54.768 °C,0.857
same,"Thermofluor FLuc, No ATP",55.762 °C,0.972
same,"Thermofluor FLuc, ATP",55.762 °C,0.903
same,"Thermofluor FLuc, No ATP",56.755 °C,0.954
same,"Thermofluor FLuc, ATP",56.755 °C,0.933
same,"Thermofluor FLuc, No ATP",57.748 °C,0.930
same,"Thermofluor FLuc, ATP",57.748 °C,0.95
same,"Thermofluor FLuc, No ATP",58.742 °C,0.908
same,"Thermofluor FLuc, ATP",58.742 °C,0.958
same,"Thermofluor FLuc, No ATP",59.735 °C,0.892
same,"Thermofluor FLuc, ATP",59.735 °C,0.959
same,"Thermofluor FLuc, No ATP",60.729 °C,0.925
same,"Thermofluor FLuc, ATP",60.729 °C,0.959
same,"Thermofluor FLuc, No ATP",61.722 °C,0.872
same,"Thermofluor FLuc, ATP",61.722 °C,0.958
same,"Thermofluor FLuc, No ATP",62.715 °C,0.877
same,"Thermofluor FLuc, ATP",62.715 °C,0.96
same,"Thermofluor FLuc, No ATP",63.709 °C,0.837
same,"Thermofluor FLuc, ATP",63.709 °C,0.963
same,"Thermofluor FLuc, No ATP",65.695 °C,0.837
same,"Thermofluor FLuc, ATP",65.695 °C,0.975
same,"Thermofluor FLuc, No ATP",66.689 °C,0.789
same,"Thermofluor FLuc, ATP",66.689 °C,0.981
same,"Thermofluor FLuc, No ATP",68.676 °C,0.772
same,"Thermofluor FLuc, ATP",68.676 °C,0.992
same,"Thermofluor FLuc, No ATP",69.669 °C,0.774
same,"Thermofluor FLuc, ATP",69.669 °C,0.996
same,"Thermofluor FLuc, No ATP",70.662 °C,0.720
same,"Thermofluor FLuc, ATP",70.662 °C,0.998
same,"Thermofluor FLuc, No ATP",71.656 °C,0.708
same,"Thermofluor FLuc, ATP",71.656 °C,0.999
same,"Thermofluor FLuc, No ATP",72.649 °C,0.718
same,"Thermofluor FLuc, ATP",72.649 °C,0.999
same,"Thermofluor FLuc, No ATP",73.643 °C,0.669
same,"Thermofluor FLuc, ATP",73.643 °C,0.998
same,"Thermofluor FLuc, No ATP",74.636 °C,0.675
same,"Thermofluor FLuc, ATP",74.636 °C,0.997
same,"Thermofluor FLuc, No ATP",75.629 °C,0.640
same,"Thermofluor FLuc, ATP",75.629 °C,0.995
